Experimental findings from ChEMBL document CHEMBL1201862, “PubChem BioAssay data set” (2004) are described below.

Calls of active or inactive are those of the source. Cut-off read from the data, not from the text of the source: actives have a measured EC50 and inactives only a lower limit.

Assay [1] in a line: Trypanosoma cruzi growth suppression in host cells – NIH3T3 host cells, beta-gal luminescence, confirmation (AID 2044).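 Note: intracellular parasites grown in NIH/3T3 mouse fibroblasts as host cells; luminescent beta-galactosidase reporter signal from transgenic T. cruzi replicating inside host cells; inhibitors lower the luminescence signal.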 In kind it is functional, cell-based.
The nature of assay [2]: NIH3T3 cell viability loss – ATP luminescence, mouse fibroblasts, counter-screen, dose response (AID 2010).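 Note: cells exposed to compound for about 90 hours before reading.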 The class given is functional, cell-based. Background: Counterscreens check selectivity or assay interference.
The test system of assay [3] is Streptococcus sp. 'group A'. The assay is described as follows: Streptococcus pyogenes SK(-)GAS viability under kanamycin – luminescence, BacTiterGlo, confirmation, counter-screen for streptokinase expression inhibitor project, dose response (AID 1900). In kind it is functional, organism-based.
A further assay deals with Streptococcus. The assay is described as follows: GAS UMAA2166 growth inhibition – luminescence, BacTiterGlo, counter-screen for streptokinase expression inhibitor project, dose response (AID 1915).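 Note: potency for reduction of bacterial viability or growth.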 The class given is functional, organism-based.
The target of another assay is T1, Streptokinase A (Streptococcus pyogenes serotype M1, UniProt P10520).
T1 sequence (P10520 whole entry): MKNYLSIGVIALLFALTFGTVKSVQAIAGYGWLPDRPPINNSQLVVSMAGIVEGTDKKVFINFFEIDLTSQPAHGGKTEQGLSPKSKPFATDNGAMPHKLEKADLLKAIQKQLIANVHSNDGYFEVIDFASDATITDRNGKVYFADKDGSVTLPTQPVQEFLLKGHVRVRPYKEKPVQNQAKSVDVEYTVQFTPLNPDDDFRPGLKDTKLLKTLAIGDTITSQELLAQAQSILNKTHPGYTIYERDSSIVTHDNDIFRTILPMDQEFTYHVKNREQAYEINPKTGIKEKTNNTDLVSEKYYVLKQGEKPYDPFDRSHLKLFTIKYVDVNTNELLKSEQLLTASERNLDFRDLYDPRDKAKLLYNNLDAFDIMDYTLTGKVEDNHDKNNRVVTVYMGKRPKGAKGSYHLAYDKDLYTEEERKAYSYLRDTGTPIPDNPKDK
The assay is described as follows: viability-normalized secreted streptokinase activity reduction – plasminogen activation absorbance, OD405, dose response (AID 1914).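 Note: secreted streptokinase activity via plasminogen activation per viability signal from cell pellet.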 The class given is functional, Streptococcus pyogenes M1 GAS.

In assay [4] the target is T2, Heat shock factor protein 1 (Mus musculus, UniProt P38532).
T2 sequence (P38532 whole entry): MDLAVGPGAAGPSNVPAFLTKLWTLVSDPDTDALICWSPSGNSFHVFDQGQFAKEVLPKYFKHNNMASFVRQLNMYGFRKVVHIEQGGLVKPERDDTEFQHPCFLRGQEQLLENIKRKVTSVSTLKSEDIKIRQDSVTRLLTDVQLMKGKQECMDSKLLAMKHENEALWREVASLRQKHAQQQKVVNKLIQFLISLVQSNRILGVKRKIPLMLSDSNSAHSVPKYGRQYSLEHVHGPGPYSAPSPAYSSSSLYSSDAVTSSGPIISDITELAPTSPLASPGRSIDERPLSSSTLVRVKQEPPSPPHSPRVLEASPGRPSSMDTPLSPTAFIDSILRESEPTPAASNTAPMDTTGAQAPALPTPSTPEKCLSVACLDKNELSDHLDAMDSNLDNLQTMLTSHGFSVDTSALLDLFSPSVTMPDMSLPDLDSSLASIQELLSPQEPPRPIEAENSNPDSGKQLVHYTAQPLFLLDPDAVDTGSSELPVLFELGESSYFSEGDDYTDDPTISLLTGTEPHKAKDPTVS
The assay is described as follows: decrease of HSF1-responsive luciferase luminescence – cell-based, NIH3T3, dose retest, confirmation (AID 2382).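 Note: NIH3T3 fibroblasts with HSF1-driven luciferase reporter stressed by proteasome inhibitor MG132; luminescence from HSF1-driven luciferase expression after 8 hours of MG132 stress.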 In kind it is functional.

As a reminder, the EC50 is the midpoint of the concentration-response curve. As to `Cc1nc2cc([N+](=O)[O-])ccc2c(=O)n1-c1ccccc1[N+](=O)[O-]`, the half-maximal effective concentration (EC50) is 1.91 µM (active) in assay [1] and 19.1 µM (active) in assay [2].
`Sc1nc(SCc2ccccc2)nc2ccccc12`: the figures for the EC50 (in assay [3]; with Streptococcus) were 4.43 µM (active) and 64.9 µM (active), respectively.
As to `COC(=O)c1ccc(CSc2cc(C)c3cc(C)cc(C)c3n2)o1`, the values for the EC50 (in assay [3]; on Streptokinase A; with Streptococcus) were 34.2 µM (active), 12.6 µM (active) and > 150 µM (not active), respectively.
Take `CCCCN(C)S(=O)(=O)c1ccc(C(=O)N(CCN(C)C)c2nc3ccc(C)cc3s2)cc1`: the EC50 in assay [1] was 0.182 µM (active); in assay [2], > 60 µM (inconclusive).
In the case of `COCCOC(=O)CC1=NC(=O)CS1`, in assay [4], the EC50 is on record as > 195 µM (not active).
With `COc1cccc(COC(=O)c2ccc3c(=O)n4c(nc3c2)CCC4)c1OC`, the values for the EC50 (in assay [3]; on Streptokinase A; with Streptococcus) were 10.8 µM (active), > 150 µM (not active) and 34.1 µM (active), respectively.
Taken in the same sequence, the figures for `Cc1cccc(NC(c2ccc(C)s2)c2ccc3ccc(C)nc3c2O)n1` (stereo not drawn) were 2.83 µM (active), 2.96 µM (active) and 9.05 µM (active).
Taken in the same sequence, the figures for `CCCCCCCc1nn2c(O)cc(=O)nc2s1` were 10.9 µM (active), > 150 µM (not active) and > 150 µM (not active).
As for `C=CCn1c(O)c(N=NC(=S)Nc2ccc(OC)c(Cl)c2)c2ccccc21`, the EC50 in assay [1] is 0.586 µM (active); in assay [2] it was 3.88 µM (active).
For `O=C(CSc1nnc(NC(=O)c2cccc(Cl)c2)s1)NCC1CCCO1` (stereo not drawn), the EC50 (in assay [3]; on Streptokinase A; in the assay with Streptococcus) was > 150 µM (not active) in each case.
For `Cc1c2c(n3c(nc4ccccc43)c1C#N)N(CCCN(C)C)CC2`, the EC50 in assay [1] is 0.242 µM (active); in assay [2] it was > 60 µM (not active).
Taken in the same sequence, the figures for `Cc1cccc(CN2CCCC(C(=O)N3CCc4ccccc4C3)C2)c1` (stereo not drawn) were 0.214 µM (active) and > 60 µM (not active).
Regarding `Cc1ccc(CN2C(=O)c3ccccc3NC2c2cc(Br)ccc2O)cc1` (stereo not drawn), the EC50 in assay [3] is 5.08 µM (active); on Streptokinase A, 5 µM (active); with Streptococcus, 8.52 µM (active).
Turning to `CCCCC(=O)Nc1cccc(NC(=O)c2cccc(Br)c2)c1`, the EC50 in assay [4] was > 195 µM (not active).
Same read-out and setting: to `Cc1ccc(-c2nn(-c3ccccc3)cc2CN(C)C(=O)CCC(=O)O)cc1C` belongs > 195 µM (not active); to `CCC1COCCS(=O)(=O)N1Cc1ccccc1C` (stereo not drawn), > 195 µM (not active).
Take `OCCCCNCc1ccc(OCc2ccc(Cl)cc2)cc1`: the EC50 in assay [1] was 2.39 µM (active); in assay [2], 10.6 µM (active).
For `Cc1cc(C(C)(C)C)ccc1OCCOCCN1CCCC1`, the figures for the EC50 in assay [1] and in assay [2] were 0.913 µM (active) and > 60 µM (inconclusive), respectively.
`N#CC1=C(N)SC(N)=C(C#N)C1c1c(Cl)cccc1Cl`: the EC50 in assay [3] is 6.67 µM (active); on Streptokinase A, 93.5 µM (active); in the assay on Streptococcus, > 150 µM (not active).
Taken in the same sequence, the figures for `Cc1cccc(N2CCN(C(=O)c3ccc4nc(N5CCCCC5)sc4c3)CC2)c1C` were 13.8 µM (active), 14.6 µM (active) and 140 µM (active).
As for `Cc1ccccc1C(=O)OC1CCN(C)CC1`, the 50% effective concentration (EC50) was 0.115 µM (active) in assay [1] and 42.4 µM (active) in assay [2].
As for `CCn1ncc(CN2CCCC(CNC(=O)c3ccc(F)cc3)C2)c1C` (stereo not drawn), the EC50 in assay [1] was 0.106 µM (active); in assay [2] it was > 60 µM (not active).
Turning to `CC(C)(C)NC(=O)CSc1nc2ccc(Nc3nc(N4CCOCC4)nc(N4CCOCC4)n3)cc2s1`, the EC50 was 0.832 µM (active) in assay [1] and > 30 µM (not active) in assay [2].
As for `Cc1cc(C)c2nc(O)c(CN(Cc3ccccc3)C(S)=NCCCN(C)C)cc2c1`, the EC50 is 2.19 µM (active) in assay [1] and > 60 µM (not active) in assay [2].
The like results for `CCOC(=O)c1c(-c2ccccc2)c2cc(OC)ccc2n1CCCN(C)C` were, in that order, 0.653 µM (active) and 16.3 µM (active).
As to `CCC(C)n1c(SC(C)C#N)nc2ccccc2c1=O` (stereo not drawn), the EC50 in assay [4] is reported as > 195 µM (not active).
In the case of `COC(=O)C(Cc1cnc(Cl)s1)(C(=O)OC)c1ccc([N+](=O)[O-])cc1[N+](=O)[O-]`, the concentration giving a half-maximal response (EC50) in assay [1] is 1.2 µM (active); in assay [2] it was > 60 µM (not active).
For `Cc1nn(-c2ccccc2)c(N)c1C(O)(CSc1nccn1C)C(F)(F)F` (stereo not drawn), the EC50 in assay [4] is listed as > 195 µM (not active).
In the case of `O=C(c1c(F)cccc1F)N1CCN(c2ccccc2F)CC1`, in assay [4], the EC50 is > 195 µM (not active).
Consider `COc1ccc(S(=O)(=O)N2CCC(NC(=O)C(Cc3cccc(OC)c3OC)NC(C)=O)CC2)cc1` (stereo not drawn), for which, in assay [4], the EC50 is given as > 195 µM (not active).
For `Cc1ccsc1C(=O)OCC(=O)c1cc2ccccc2o1`, the EC50 (in assay [3]; at Streptokinase A; in the assay with Streptococcus) was > 150 µM (not active) in each case.
Turning to `CCOc1ccc(CN2CCCC(CNC(=O)c3ccc(F)cc3)C2)cc1CO` (stereo not drawn), the results for the EC50 in assay [1] and in assay [2] were 0.771 µM (active) and > 30 µM (not active), respectively.
Consider `Cc1ccccc1SCC(=O)Nc1cc(C(F)(F)F)ccc1N1CCOCC1`, for which the figures for the EC50 in assay [1] and in assay [2] were 3.94 µM (active) and > 60 µM (not active), respectively.
Consider `CN(c1ccccc1)c1nc(N2CCCC2)nc(-n2ccnc2)n1`, for which the EC50 in assay [3] is 13.1 µM (active); at Streptokinase A, 75.6 µM (active); with Streptococcus, > 50 µM (not active).
On to `CN1CCC(OC(=O)c2cccc(F)c2)CC1`, for which the EC50 was 0.256 µM (active) in assay [1] and > 30 µM (not active) in assay [2].
Taken in the same sequence, the figures for `CC1CCN(CCOCCOc2ccc(Cl)cc2Br)CC1` were 0.54 µM (active) and 13.8 µM (active).
Take `O=C(N/N=C/c1cc([N+](=O)[O-])ccc1O)c1ccncc1`: the EC50 in assay [4] is 0.66 µM (active).
For `Cc1[nH]c2ccccc2c1/C=N/Nc1ccccc1[N+](=O)[O-]`, the half-maximal effective concentration (EC50) in assay [1] was 2.3 µM (active); in assay [2], > 60 µM (not active).
Take `CC(/N=C/C1=C(O)OC(C)(C)OC1=O)C(=O)O` (stereo not drawn): the EC50 in assay [2] is > 60 µM (not active).
For `CCOc1ccc(/C=N/Nc2cc(N3CCOCC3)nc(C)n2)c(O)c1`, the EC50 (in assay [3]; on Streptokinase A; in the assay with Streptococcus) was > 150 µM (not active) each time.
Take `O=C(CSc1ccccn1)N/N=C/c1cc([N+](=O)[O-])ccc1O`: the EC50 is 1.01 µM (active) in assay [3] and 2.72 µM (active) in the assay with Streptococcus.
As for `CCCCCCCCCC(=O)N/N=C(\C)c1cccnc1`, the EC50 was 1.31 µM (active) in assay [1] and > 60 µM (not active) in assay [2].
Take `COc1cccc(/C=N/NC(=O)c2nnn(-c3nonc3N)c2C(C)C)c1OCc1ccc(F)cc1`: the EC50 was 13 µM (active) in assay [3], 62.6 µM (active) at Streptokinase A and 43.1 µM (active) in the assay on Streptococcus.
